Laboratory results as given in PubChem BioAssay AID2305 (GlaxoSmithKline (GSK), 2010).

test system: P. falciparum 3D7 growth, pLDH absorbance; assay: blood-stage malaria parasite growth potency – strain 3D7, dose response (AID 2305)

| SMILES | IC50 [nM] |
| --- | --- |
| COc1ccc(C=C2SC(=O)NC2=Nc2ccccc2)c(OC)c1 | 470 |
| O=C(/C=C/c1ccc(Cl)c(Cl)c1)N1CCN(C(=O)Nc2ccc(C(F)(F)F)cc2)CC1 | 670 |
| CC(C)Cc1nc(N)nc(N)c1-c1ccc(Cl)cc1 | 140 |
| Cc1cc(C(=O)OCC(N)=O)c(C)n1-c1ccc(F)cc1 | 330 |
| Cc1noc(C)c1-c1cccc(CNCc2ccc(-c3ccc(-c4nc5c(C)cccc5[nH]4)cc3)cc2)c1 | 240 |
| Nc1nc(N)c2cc(C(F)(F)F)ccc2n1 | 1130 |
| N#Cc1ccc(N(CCOC(=O)c2ccccc2)Cc2ccccc2C(F)(F)F)cc1C(F)(F)F | 920 |
| O=C1C2C(C(=O)N1c1ccccc1)[C@H]1S[C@@H]2c2c1ccc1ccccc21 (stereo partly specified) | 770 |
| O=C(/C=C/c1ccc(Cl)c(Cl)c1)NCCCCCN1CC[C@H](c2c[nH]c3ccccc23)[C@@H](O)C1 | 800 |
| COc1ccc(-c2ccc(CNC(=O)c3ccc(C#N)cc3)c(F)c2)cc1CN1CCCN(C)CC1 | 1140 |
| CCN(CCNc1nc(NCCc2cnc[nH]2)nc(N(CCC#N)Cc2ccccc2)n1)c1cccc(C)c1 | 710 |
| COc1ccc(-c2cccc(NC(=O)c3cccc(C#N)c3)c2)cc1CN1CCN(C)CC1 | 930 |
| CC1(C)N=C(N)NC(NOCC=Cc2ccccc2)=N1 | 230 |
| O=C(NCCCCN1CCC(c2ccc3c(c2OCc2ccncc2)CCCC3)CC1)c1ccc(-c2ccc(C(F)(F)F)cc2)cc1 | 170 |
| CCc1ccnc2c(N3CCCC3=O)cc(C(=O)N[C@@H](Cc3ccccc3)[C@H](O)CNC3CCOCC3)cc12 | 380 |
| O=c1[nH]c2ccc3[nH]cccc3c2c1C=Nc1ccc(Cn2ccnc2)cc1 | 660 |
| CCOc1ccc(C(C)NC(=O)Cc2ccccc2F)cc1OCC (stereo unspecified) | 840 |
| CC(C)N1CCN(C(=O)c2ccc(CNCCCN3CCN(c4cccc(Cl)c4Cl)CC3)s2)CC1 | 720 |
| O=C(NC1CCC(CN2CCC(c3c[nH]c4ccccc34)CC2)CC1)[C@H]1Cc2ccccc2CN1 (stereo partly specified) | 950 |
| O=S(=O)(/C=C/c1ccccc1)N(Cc1ccc(-c2ccc(CNCCOc3ccccc3)cc2)cc1)CC1CCCCN1 (stereo unspecified) | 740 |
| CC(C)Cn1c(Sc2ccc(C#N)c([N+](=O)[O-])c2)nnc1-c1ccc(N(C)C)cc1 | 220 |
| CN1CCC(N2CCN(Cc3ccc(-c4cccc(-c5nc6ccc(F)cc6[nH]5)c4)cc3)CC2)CC1 | 170 |
| C=CCc1cc(Cc2cnc(N)nc2N)c2ccc(C)nc2c1OC | 690 |
| CO/C(=C/C=C/c1cc2cc(Cl)c(Cl)cc2[nH]1)C(=O)NC1CC(C)(C)N(C)C(C)(C)C1 | 780 |

| SMILES | IC50 [nM] |
| --- | --- |
| Cc1ccc(NC(=O)c2ccc(Cl)c(Cl)c2)cc1-c1ccc(C(=O)Nc2ccncc2)cc1 | 570 |
| CC(=O)Nc1ccc(OCCN(CC(F)(F)F)c2ccc(C#N)cc2C(F)(F)F)cc1 | 770 |
| CCNc1cc(C(=O)N[C@@H](Cc2ccccc2Cl)[C@H](O)CNC(C)CCCC(C)C)cc(N2CCCCS2(=O)=O)c1 (stereo partly specified) | 930 |
| CCOC(=O)C1=C(C)N=c2sc(=Cc3cc(Cl)ccc3O)c(=O)n2C1c1ccc(OC)cc1 (stereo unspecified) | 750 |
| CC(C)(C)c1nn(-c2ccccc2)c2[nH]c(=O)c(CNCc3ccc4c(c3)OCO4)cc12 | 1050 |
| CCCCCCc1cc(Oc2c(I)cc(C[C@H](N)C(=O)O)cc2I)ccc1O | 910 |
| O=C(Cc1cccc(Cl)c1)Nc1cccc(-c2c[nH]c3nc(Nc4cccc(OCc5ccccc5)c4)ncc23)c1 | 1040 |
| Cc1cccc2[nH]c(-c3ccc(-c4ccc(CN5CCCC(O)C5)cc4)s3)nc12 (stereo unspecified) | 830 |
| Cn1nc(C(F)(F)F)c(-c2ccc(F)cc2)c1NC(=O)Nc1ccccc1 | 800 |
| CCNc1cc(C)nc(Nc2ccc(NC(=O)c3ccccc3Br)cc2)n1 | 740 |
| COc1ccc2nc(C)cc(NN=Cc3cccc([N+](=O)[O-])c3)c2c1 | 730 |
| CCn1c2ccccc2c2cc(C=NNc3cc(C)nc4ccccc34)ccc21 | 310 |
| COC(=O)c1ccc(CC(C)NCC(O)c2cccc(Oc3cccc(C(F)(F)F)c3)c2)cc1 (stereo unspecified) | 1170 |
| CC(=O)N1CCC(C(=O)Nc2ccc(-c3cccc(-c4nc5ccc(C(F)(F)F)cc5[nH]4)c3)cc2)CC1 | 240 |
| COc1ccc(NC(=O)Nc2cccc(-c3ccncc3)c2)cc1N1CCN(C)CC1 | 550 |
| Cc1ccc2nc3ccccc3c(NCCN3CCN(C)CC3)c2c1 | 590 |
| COCCNCc1ccc(-c2ccc(CNc3ccc4ncccc4c3)cc2)cc1 | 1040 |
| CC(C)CNCc1ccc(-c2cccc(CNc3ccc4ncccc4c3)c2)cc1 | 910 |
| O=C(Nc1ccc([N+](=O)[O-])cc1)c1nn(-c2ccccc2)cc1N=Cc1cccc(O)c1 | 890 |
| CC(C)C[C@H](NC(=O)c1cc2ccccc2s1)C(=O)N[C@H]1CCN(Cc2ccc(OCCN3CCNCC3)c3ccccc23)C1 | 1420 |
| FC(F)(F)c1ccc2nc(-c3ccc(-c4ccc(CNCc5cnn(-c6ccccc6)n5)cc4)cc3)[nH]c2c1 | 430 |
| CC(C)CNCc1cccc(-c2ccc(CN(C(=O)Nc3ccccc3)C3CCN(Cc4ccccc4)CC3)cc2)c1 | 480 |
| CCc1c(C)nc(-n2nc(C)cc2NC(=O)C(CC)c2ccccc2)[nH]c1=O (stereo unspecified) | 710 |
| c1cc(Nc2nccc(-c3cnn4ncccc34)n2)cc(-c2cnco2)c1 | 690 |

| SMILES | IC50 [nM] |
| --- | --- |
| NC(=NCCCCCCN=C(N)/N=C(\N)c1ccc(Cl)cc1)/N=C(\N)c1ccc(Cl)cc1 | 210 |
| Cc1[nH]c(C)c(-c2ccc(OCCCCSc3ccncc3)cc2)c(=O)c1Br | 250 |
| COc1ccc(CCNCCCCCCNCCc2ccccc2Cl)cc1OC | 660 |
| CCCCCCCCNCc1c(O)ccc2ccccc12 | 740 |
| COc1c(CNCCCCCCNCc2cc(Cl)c3ccccc3c2OC)cc(Cl)c2ccccc12 | 940 |
| CCc1ccc(CNCC(CCNc2cc(=O)c3ccccc3[nH]2)NCc2cc(Br)cc(Br)c2)o1 (stereo unspecified) | 640 |
| CN(Cc1cc(C(F)(F)F)cc(C(F)(F)F)c1)C(=O)C(Cc1ccc(F)cc1)C1CCCNC1 (stereo unspecified) | 1540 |
| CON(CCCN(C)C)C(=N)N | 1080 |
| COCCNCc1nc(-c2ccc3c(Nc4ccc(F)c(O)c4)ccnc3c2)cs1 | 690 |
| Cn1nccc1C(=O)NCCNCc1ccc(-c2cccc(-c3nc4ccc(C(F)(F)F)cc4[nH]3)c2)cc1 | 120 |
| O=C(Nc1cccc(-c2cccc(-c3nc4ccccc4[nH]3)c2)c1)c1csnn1 | 920 |
| CC(C)C1C(O)=C(c2ccc3ccccc3c2)C(=O)N1Cc1ccsc1 (stereo unspecified) | 1070 |
| COc1ccc(Nc2nccc(-c3ccc4c(-c5ccsc5)cnc(N)c4c3)n2)cc1 | 240 |
| O=C(Nc1ccc(Cn2ncc(N3CCCNCC3)c(Cl)c2=O)cc1)Nc1ccc(C(F)(F)F)cc1 | 730 |
| CC(C)CN1CCCN(Cc2cccc(NC(=O)c3ccc(Cl)c(Cl)c3)c2)CC1 | 890 |
| O=C(/C=C/c1ccc(Cl)c(Cl)c1)NCCCCCN1CCCN(C(=S)Nc2ccc(Cl)c(Cl)c2)CC1 | 870 |
| Cc1cnc(C(=O)Nc2cccc(-c3cccc(-c4nc5ccc(F)cc5[nH]4)c3)c2)cn1 | 770 |
| c1ccc(Oc2ccc(Nc3ccnc4cc(-c5ccc(CN6CCNCC6)o5)ccc34)cc2)nc1 | 240 |
| CCc1ccc(CN2CCC(NC(=O)c3ccc(-c4ccc(N(C)C)cc4)s3)CC2)cc1 | 1210 |
| c1ccc2c(c1)CN(CC1CC1)CC1(CCN(Cc3c[nH]c4cnccc34)CC1)O2 | 900 |
| NC(N)=NN=Cc1c[nH]c2ccc(-c3ccccc3)cc12 | 530 |
| CNCCNCc1ccc(-c2ccc(-c3nc4ccccc4[nH]3)s2)cc1 | 860 |
| OC1(Cc2ccccc2)CCN(Cc2cccc(-c3c[nH]c4nc(NC5CCCC5)ncc34)c2)CC1 | 930 |
